Laboratory results taken from PubChem BioAssay (NCI).
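Each compound was tested at five concentrations against cells in 96-well plates for 48 hours. TGI: total growth inhibition.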

Columns and labels:
Assay in all cases: growth of human tumour cells (NCI), 48 h
A498 renal = tested on: A498 renal
A549 NSCLC = tested on: A549 NSCLC
ACHN renal = tested on: ACHN renal
CAKI-1 renal = tested on: CAKI-1 renal
CCRF-CEM leukemia = tested on: CCRF-CEM leukemia
COLO 205 colon = tested on: COLO 205 colon
DU-145 prostate = tested on: DU-145 prostate
HCT-116 colon = tested on: HCT-116 colon
HCT-15 colon = tested on: HCT-15 colon
HL-60(TB) leukemia = tested on: HL-60(TB) leukemia
HOP-62 NSCLC = tested on: HOP-62 NSCLC
HS 578T breast = tested on: HS 578T breast
HT29 colon = tested on: HT29 colon
IGROV1 ovarian = tested on: IGROV1 ovarian
K-562 leukemia = tested on: K-562 leukemia
LOX IMVI melanoma = tested on: LOX IMVI melanoma
M14 melanoma = tested on: M14 melanoma
MCF7 breast = tested on: MCF7 breast
MDA-MB-231 breast = tested on: MDA-MB-231 breast
MDA-MB-435 = tested on: MDA-MB-435
MDA-N = tested on: MDA-N
NCI-H23 lung = tested on: NCI-H23 lung
NCI-H460 lung = tested on: NCI-H460 lung
NCI-H522 lung = tested on: NCI-H522 lung
NCI/ADR-RES ovarian = tested on: NCI/ADR-RES ovarian
OVCAR-3 ovarian = tested on: OVCAR-3 ovarian
OVCAR-4 ovarian = tested on: OVCAR-4 ovarian
OVCAR-5 ovarian = tested on: OVCAR-5 ovarian
OVCAR-8 ovarian = tested on: OVCAR-8 ovarian
PC-3 prostate = tested on: PC-3 prostate
RPMI-8226 leukemia = tested on: RPMI-8226 leukemia
SF-295 CNS = tested on: SF-295 CNS
SK-MEL-2 melanoma = tested on: SK-MEL-2 melanoma
SK-MEL-28 melanoma = tested on: SK-MEL-28 melanoma
SK-MEL-5 melanoma = tested on: SK-MEL-5 melanoma
SK-OV-3 ovarian = tested on: SK-OV-3 ovarian
SN12C renal = tested on: SN12C renal
SNB-75 CNS = tested on: SNB-75 CNS
SR leukemia = tested on: SR leukemia
SW-620 colon = tested on: SW-620 colon
T-47D breast = tested on: T-47D breast
TK-10 renal = tested on: TK-10 renal
U251 CNS = tested on: U251 CNS
UACC-257 melanoma = tested on: UACC-257 melanoma
786-0 renal = tested on: 786-0 renal
EKVX NSCLC = tested on: EKVX NSCLC
HCC-2998 colon = tested on: HCC-2998 colon
HOP-92 NSCLC = tested on: HOP-92 NSCLC
KM12 colon = tested on: KM12 colon
MALME-3M melanoma = tested on: MALME-3M melanoma
MOLT-4 leukemia = tested on: MOLT-4 leukemia
NCI-H226 lung = tested on: NCI-H226 lung
RXF 393 renal = tested on: RXF 393 renal
SF-268 CNS = tested on: SF-268 CNS
SF-539 CNS = tested on: SF-539 CNS
SNB-19 CNS = tested on: SNB-19 CNS
UACC-62 melanoma = tested on: UACC-62 melanoma
UO-31 renal = tested on: UO-31 renal

`COP(=O)(OC)/C(=C/c1cn(C(C)=O)c2ccccc12)NC(C)=O` showed a TGI (A498 renal) of 94.3 µM, a TGI (A549 NSCLC) greater than 100 µM and a TGI (ACHN renal) greater than 100 µM. The TGI (CAKI-1 renal) was greater than 100 µM, the TGI (CCRF-CEM leukemia) was 58.3 µM and the TGI (COLO 205 colon) was greater than 100 µM. For the same molecule, the TGI (DU-145 prostate) was greater than 100 µM, the TGI (HCT-116 colon) was greater than 100 µM and the TGI (HCT-15 colon) was 66.4 µM. For the same molecule, the TGI (HL-60(TB) leukemia) was 42.6 µM, the TGI (HOP-62 NSCLC) was greater than 100 µM and the TGI (HS 578T breast) was greater than 100 µM. It also gave a TGI (HT29 colon) greater than 100 µM, a TGI (IGROV1 ovarian) greater than 100 µM and a TGI (K-562 leukemia) greater than 100 µM. For the same molecule, the TGI (LOX IMVI melanoma) was 41.9 µM, the TGI (M14 melanoma) was greater than 100 µM and the TGI (MCF7 breast) was greater than 100 µM. For the same molecule, the TGI (MDA-MB-231 breast) was greater than 100 µM, the TGI (MDA-MB-435) was greater than 100 µM and the TGI (MDA-N) was 36.3 µM. The TGI (NCI-H23 lung) was greater than 100 µM, the TGI (NCI-H460 lung) was greater than 100 µM and the TGI (NCI-H522 lung) was greater than 100 µM. For the same molecule, the TGI (NCI/ADR-RES ovarian) was greater than 100 µM, the TGI (OVCAR-3 ovarian) was 66.2 µM and the TGI (OVCAR-4 ovarian) was greater than 100 µM. For the same molecule, the TGI (OVCAR-5 ovarian) was greater than 100 µM, the TGI (OVCAR-8 ovarian) was greater than 100 µM and the TGI (PC-3 prostate) was greater than 100 µM. The TGI (RPMI-8226 leukemia) was 45.3 µM, the TGI (SF-295 CNS) was greater than 100 µM and the TGI (SK-MEL-2 melanoma) was greater than 100 µM. For the same molecule, the TGI (SK-MEL-28 melanoma) was greater than 100 µM, the TGI (SK-MEL-5 melanoma) was greater than 100 µM and the TGI (SK-OV-3 ovarian) was greater than 100 µM. It also gave a TGI (SN12C renal) greater than 100 µM, a TGI (SNB-75 CNS) greater than 100 µM and a TGI (SR leukemia) greater than 100 µM. The TGI (SW-620 colon) was greater than 100 µM, the TGI (T-47D breast) was greater than 100 µM and the TGI (TK-10 renal) was greater than 100 µM. The TGI (U251 CNS) was greater than 100 µM and the TGI (UACC-257 melanoma) was greater than 100 µM.
For `CC(C)CC(NC(=O)C(Cc1ccccc1)NC(=O)[C@H]1CC[C@H](NC(=O)C(Cc2ccc(OC(C)(C)C)cc2)NC(=O)OC(C)(C)C)C1)C(N)=O` (stereo partly specified), the TGI (786-0 renal) was greater than 100 µM, the TGI (A498 renal) was greater than 100 µM and the TGI (A549 NSCLC) was greater than 100 µM. The TGI (ACHN renal) was greater than 100 µM, the TGI (CAKI-1 renal) was greater than 100 µM and the TGI (CCRF-CEM leukemia) was 43.3 µM. It also gave a TGI (COLO 205 colon) of 35.8 µM, a TGI (EKVX NSCLC) greater than 100 µM and a TGI (HCC-2998 colon) of 27.5 µM. For the same molecule, the TGI (HCT-116 colon) was 28.2 µM, the TGI (HCT-15 colon) was 48.9 µM and the TGI (HL-60(TB) leukemia) was greater than 100 µM. It also gave a TGI (HOP-62 NSCLC) greater than 100 µM, a TGI (HOP-92 NSCLC) of 59 µM and a TGI (HS 578T breast) of 35.8 µM. It also gave a TGI (HT29 colon) of 46.2 µM, a TGI (IGROV1 ovarian) of 77.8 µM and a TGI (K-562 leukemia) of 47.9 µM. It also gave a TGI (KM12 colon) of 44.1 µM, a TGI (LOX IMVI melanoma) of 35.1 µM and a TGI (M14 melanoma) of 33.7 µM. The TGI (MALME-3M melanoma) was 61 µM, the TGI (MCF7 breast) was 31.9 µM and the TGI (MDA-MB-231 breast) was 97 µM. The TGI (MDA-MB-435) was 41.2 µM, the TGI (MDA-N) was 41.1 µM and the TGI (MOLT-4 leukemia) was 53.6 µM. It also gave a TGI (NCI-H226 lung) of 45.2 µM, a TGI (NCI-H23 lung) of 31.4 µM and a TGI (NCI-H460 lung) of 39.7 µM. The TGI (NCI-H522 lung) was 33.7 µM, the TGI (NCI/ADR-RES ovarian) was greater than 100 µM and the TGI (OVCAR-3 ovarian) was 58 µM. It also gave a TGI (OVCAR-4 ovarian) greater than 100 µM, a TGI (OVCAR-5 ovarian) greater than 100 µM and a TGI (OVCAR-8 ovarian) of 36 µM. It also gave a TGI (PC-3 prostate) of 59.3 µM, a TGI (RPMI-8226 leukemia) greater than 100 µM and a TGI (RXF 393 renal) greater than 100 µM. It also gave a TGI (SF-268 CNS) greater than 100 µM, a TGI (SF-295 CNS) of 83.5 µM and a TGI (SF-539 CNS) of 42.6 µM. For the same molecule, the TGI (SK-MEL-2 melanoma) was 34.8 µM, the TGI (SK-MEL-28 melanoma) was 51.5 µM and the TGI (SK-MEL-5 melanoma) was 20.1 µM. The TGI (SK-OV-3 ovarian) was greater than 100 µM, the TGI (SN12C renal) was 31.5 µM and the TGI (SNB-19 CNS) was 53.9 µM. The TGI (SNB-75 CNS) was greater than 100 µM, the TGI (SR leukemia) was greater than 100 µM and the TGI (SW-620 colon) was 94.3 µM. The TGI (T-47D breast) was 46.9 µM, the TGI (TK-10 renal) was 86.9 µM and the TGI (U251 CNS) was 28.6 µM. For the same molecule, the TGI (UACC-257 melanoma) was 37 µM, the TGI (UACC-62 melanoma) was 41.8 µM and the TGI (UO-31 renal) was greater than 100 µM.
Work on `C=CC1(c2ccc(-c3ccccc3)cc2)OCCO1` yielded a TGI (786-0 renal) greater than 100 µM, a TGI (A549 NSCLC) greater than 100 µM and a TGI (ACHN renal) greater than 100 µM. For the same molecule, the TGI (CCRF-CEM leukemia) was 86.4 µM, the TGI (COLO 205 colon) was greater than 100 µM and the TGI (DU-145 prostate) was greater than 100 µM. For the same molecule, the TGI (EKVX NSCLC) was greater than 100 µM, the TGI (HCC-2998 colon) was greater than 100 µM and the TGI (HCT-116 colon) was greater than 100 µM. The TGI (HCT-15 colon) was greater than 100 µM, the TGI (HOP-62 NSCLC) was greater than 100 µM and the TGI (HOP-92 NSCLC) was 87.1 µM. For the same molecule, the TGI (HS 578T breast) was 69 µM, the TGI (HT29 colon) was 81.2 µM and the TGI (IGROV1 ovarian) was greater than 100 µM. It also gave a TGI (K-562 leukemia) of 61.9 µM, a TGI (KM12 colon) greater than 100 µM and a TGI (LOX IMVI melanoma) greater than 100 µM. The TGI (M14 melanoma) was greater than 100 µM, the TGI (MALME-3M melanoma) was greater than 100 µM and the TGI (MCF7 breast) was greater than 100 µM. It also gave a TGI (MDA-MB-231 breast) greater than 100 µM, a TGI (MDA-MB-435) greater than 100 µM and a TGI (MDA-N) greater than 100 µM. The TGI (MOLT-4 leukemia) was greater than 100 µM, the TGI (NCI-H226 lung) was 64.1 µM and the TGI (NCI-H23 lung) was 89.8 µM. For the same molecule, the TGI (NCI-H460 lung) was greater than 100 µM, the TGI (NCI-H522 lung) was greater than 100 µM and the TGI (NCI/ADR-RES ovarian) was greater than 100 µM. It also gave a TGI (OVCAR-3 ovarian) greater than 100 µM, a TGI (OVCAR-4 ovarian) greater than 100 µM and a TGI (OVCAR-5 ovarian) greater than 100 µM. For the same molecule, the TGI (OVCAR-8 ovarian) was greater than 100 µM, the TGI (PC-3 prostate) was greater than 100 µM and the TGI (RPMI-8226 leukemia) was greater than 100 µM. It also gave a TGI (RXF 393 renal) of 88.6 µM, a TGI (SF-268 CNS) greater than 100 µM and a TGI (SF-295 CNS) greater than 100 µM. It also gave a TGI (SF-539 CNS) greater than 100 µM, a TGI (SK-MEL-2 melanoma) of 53.7 µM and a TGI (SK-MEL-28 melanoma) greater than 100 µM. The TGI (SK-MEL-5 melanoma) was greater than 100 µM, the TGI (SK-OV-3 ovarian) was greater than 100 µM and the TGI (SN12C renal) was greater than 100 µM. It also gave a TGI (SNB-19 CNS) greater than 100 µM, a TGI (SNB-75 CNS) greater than 100 µM and a TGI (SR leukemia) of 84.6 µM. The TGI (SW-620 colon) was greater than 100 µM, the TGI (T-47D breast) was greater than 100 µM and the TGI (TK-10 renal) was greater than 100 µM. The TGI (U251 CNS) was greater than 100 µM, the TGI (UACC-257 melanoma) was greater than 100 µM and the TGI (UACC-62 melanoma) was 89.1 µM. It also gave a TGI (UO-31 renal) greater than 100 µM.
